Measurements: patent publication US20230077723A1, “N-SUBSTITUTED-3,4-(FUSED 5-RING)-5-PHENYL-PYRROLIDINE-2-ONE COMPOUNDS AS INHIBITORS OF ISOQC AND/OR QC ENZYME” (Scenic Immunology B.V., priority 2019, published 2023)
pIC50: −log10 of the molar value.

Experiments:
[1] = target: T1, human isoQC (S53-L382) (Homo sapiens, UniProt Q9NXS2); assay: Assay 2 - isoQC potency, mass spectrometry-based enzymatic potency assay; format: biochemical; details: mass spectrometry read-out, 7.5 nM isoQC, 10 μM H-Gln-AMC; read-out: isoQc Pot. Assay No. 2
T1 construct: enzymatically active region of human isoQC (S53-L382; see, e.g., Huang et al., 2011); GST-Enterokinase site (N, cleaved yes); made in house; host or cells: E. coli
Procedure: (§1) The Golgi luminal, enzymatically active region of human isoQC (S53-L382; see, e.g., Huang et al., 2011) was obtained by expression in E. coli of an N-terminally GST-Enterokinase and C-terminally 6×His tagged construct in the pET41(+) vector and subsequent purification using talon beads and GST beads, enterokinase digestion and further purification with a final formulation in 25 mM Tris pH 8.0/150 mM NaCl/1 mM TCEP. Absence of pyroglutamylating activity in an enzymatic dead variant that was cloned, expressed, and purified in parallel ruled out that the purification strategy isolates any endogenously present pyroglutamylating activity.
(§2) EC50's of test compounds were determined by incubating 11-point two-fold dilutions of test compound in 20 μL volumes in the presence of 7.5 nM isoQC and 10 μM H-Gln-AMC using 50 mM Tris-HCl pH 8.0 as assay buffer for 2 hours at room temperature before stopping the reaction by the addition of 2 volumes of methanol. Both the substrate and the product of this reaction were read out using an Agilent RapidFire microfluidic solid phase sample extraction system coupled to an AB Sciex API 4000 triple quadrupole mass spectrometer, in negative ion mode, at m/z of 301.9 and 284.9 respectively. The actual readout was defined as P/(S+P), where P is the product signal area and S the substrate signal area. EC50's were calculated by four parameter sigmoidal model fitting.

[2] = target: T1, human isoQC (S53-L382); assay: Assay 1 - isoQC inhibition, fluorescent enzymatic assay (single concentration); format: biochemical; details: isoQC inhibition at 250 nM test compound; read-out: isoQc Inh. Assay No. 1
Procedure: Initially, isoQC inhibitory activity was measured at a single concentration in a fluorescent-based assay (Assay 1 below). In order to establish the inhibitory activity more quantitatively, IC50 values were obtained using a mass spectrometry-based assay where pyroglutamylation by either isoQC or QC was measured (Assays 2 and 4, respectively, below). Alternatively, IC50 values for isoQC or QC were obtained using a fluorescence-based assay (Assays 3 and 5 respectively, below).
as §1
Pyroglutamylation was measured by conversion of glutamine-4-amino-7-methylcoumarine (H-Gln-AMC, Bachem) to pyroglutamyl-AMC, which is subsequently a specific substrate for pyroglutamylaminopeptidase (pGAPase, Qiagen), releasing free AMC which can be fluorescently detected. For a typical inhibition assay, 15 μL 20 μM h-Gln-AMC (diluted from a 40 mM stock dissolved in 25 mM HEPES using 50 mM Tris-HCl pH 8.0) was pipetted into a 96-well plate on ice. Next, 7.5 μL 1 μM test compound (diluted from a 10 mM stock dissolved in DMSO using 50 mM Tris-HCl) was added. Finally, 7.5 μL, 3 ng/μL recombinant isoQC enzyme was added and the reaction mixture was incubated for 1 hour at 37° C. A 5 minute incubation at 98° C. was then performed to denature the isoQC enzyme and stop the reaction.
To detect the amount of pyroglutamyl-AMC formed, a 96-well plate was prepared with 25 μL 0.125 U/mL pGAPase enzyme diluted in 50 mM Tris-HCl pH 8.0 containing 10 mM dithiothreitol (DTT). 25 μL of the pyroglutamylation reaction mixture was transferred into the plate containing the pGAPase solutions while on ice. Once done, the plate was moved over to a Spectramax ID3 fluorescent plate-reader to monitor and record the maximum fluorescence at 380 nm excitation/450 nm emission over a period of 20 minutes while keeping the temperature at 37° C.
DMSO concentrations during the assay never exceeded 1% and activities were compared to controls containing only the same amount of DMSO and no test compound. […] Test compounds were reported as active when <40% of background corrected signal was measured as compared to DMSO controls.

[3] = target: T2, recombinant human QC (Homo sapiens, UniProt Q16769); assay: Assay 4 - QC potency, mass spectrometry-based enzymatic potency assay; format: biochemical; details: mass spectrometry read-out; read-out: QC Pot. Assay No. 4
T2 construct: His6 (N); purchased R&D Systems
Procedure: as §2
EC50's of test compounds were determined in the same way as described in Assay 2 above, except that N-terminally His6-tagged recombinant human QC (R&D Systems) was used instead of isoQC.

[4] = test system: pyroglutamylated CD47 (pE-CD47) in KBM7 cells; assay: Assay 6 - cell-based potency assay (pE-CD47 CC2C6 staining vs total CD47); parameters: species or system human; details: Homo sapiens, KBM-7, 72 h, CC2C6 signal, read-out: Cell Pot. Assay No. 6
Procedure: Cells were spun for 4 minutes at 1500 rpm and washed once with PBS/0.5% BSA. Cells were spun down again and the supernatant was removed and incubated in 100 uL antibody staining solution (PBS/0.5% BSA/0.1 μg/mL DAPI (4′,6-diamidino-2-phenylindole, ThermoFisher Scientific) and a mixture of 1:500 FITC-conjugated anti-human CD47 clone 2D3, which recognizes total CD47 irrespective of its pyroglutamylation state, and 1:500 Alexa647-conjugated anti-human CD47 clone CC2C6, which specifically detects pyroglutamylated CD47) for 2 hours at 4° C. Next, the cells were spun down and washed twice with 2×150 μL PBS/0.5% BSA to remove unbound antibody. Cells were again spun down and taken up in 300 μL FACS buffer before analysis on a Celesta FACS machine (BD Biosciences).
KBM7 cells (Kotecki et al., 1999) were infected with lentivirus produced by transfecting pSCNC-LentiCRISPR-QPCTL or pSCNC-LentiCRISPR-CD47 into HEK-293T cells according to standard protocols. After 24 hours incubation, cells were selected with puromycin (Invivogen, 1 μg/mL) for 48 hours. Cells were stained for total CD47 and pE-CD47 and QPCTL k.o. cells were sorted out as negative for pE-CD47, and CD47 k.o. cells as negative for total CD47, using a FACSAria III and FACS Diva software (BD Biosciences).
In order to test compounds for their effect on pyroglutamylation in live cells, 25000 KBM7 cells per well were seeded in a 96-well U-bottom plate in 150 μl IMDM/10% FCS/1% Pen/Strep medium and a 10-point 2-fold dilution range of test compounds. After 72 hours incubation at 37° C., 5% CO2, cells were stained for total CD47 and pE-CD47 and analyzed on a BD Celesta using FACS Diva software (BD Biosciences). Cells gated for DAPI negativity were recorded and the median fluorescence intensity (MFI) of each sample was transformed to linearly scale between the MFI's of wildtype and CD47 knockout cells (in case of the 2D3 antibody) and the wildtype and QPCTL knockout cells (in case of the CC2C6 antibody). IC50's were calculated by 3 parameter logistic regression of the CC2C6 signal vs. compound concentration, where the top of the sigmoidal curve was fixed at 1, using R and the drc package (http://www.r-project.org, https://cran.r-project.org/web/packages/drc/index.html).

T1 sequence (Q9NXS2 53-382): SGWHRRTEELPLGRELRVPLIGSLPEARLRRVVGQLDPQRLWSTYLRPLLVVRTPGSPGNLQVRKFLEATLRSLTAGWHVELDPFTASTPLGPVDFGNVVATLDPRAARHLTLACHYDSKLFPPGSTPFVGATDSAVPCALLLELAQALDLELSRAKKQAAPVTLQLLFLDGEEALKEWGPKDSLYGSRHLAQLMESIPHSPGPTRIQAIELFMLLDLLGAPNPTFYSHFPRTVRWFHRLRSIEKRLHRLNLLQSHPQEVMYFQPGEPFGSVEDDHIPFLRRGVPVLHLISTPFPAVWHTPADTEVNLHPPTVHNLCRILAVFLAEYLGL
T2 sequence (Q16769 29-361): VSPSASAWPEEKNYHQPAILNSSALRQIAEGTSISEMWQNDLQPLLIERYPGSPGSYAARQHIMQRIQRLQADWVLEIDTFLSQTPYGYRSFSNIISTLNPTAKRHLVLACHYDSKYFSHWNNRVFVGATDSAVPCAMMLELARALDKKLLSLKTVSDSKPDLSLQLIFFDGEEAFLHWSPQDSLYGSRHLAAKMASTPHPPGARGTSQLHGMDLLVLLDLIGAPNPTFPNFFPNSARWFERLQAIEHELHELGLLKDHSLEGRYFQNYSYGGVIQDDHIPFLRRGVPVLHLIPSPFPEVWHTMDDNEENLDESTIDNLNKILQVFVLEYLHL

## CCCOc1ccc(C2c3c(nn(C)c3C)C(=O)N2c2ccn3ccnc3c2)cc1 (stereo not drawn) [FRPPO-009]
[1]
  pIC50: 7.00 to 7.60
[2]
  inhibition at 0.25 µM: > 40%
[3]
  pIC50: 5.30 to 7.00
[4]
  pIC50: 5.30 to 6.00

## Cc1c2c(nn1C)C(=O)N(c1ccc3[nH]cnc3c1)C2c1ccc(N2CCC(C)(C)C2=O)cc1 (stereo not drawn) [FRPPO-010]
[1]
  pIC50: 7.00 to 7.60
[2]
  inhibition at 0.25 µM: > 40%
[3]
  pIC50: 7.00 to 7.60
[4]
  pIC50: 5.30 to 6.00

## Cc1c2c(nn1C)C(=O)N(c1ccc3[nH]cnc3c1)C2c1ccc(N2CCCCCC2=O)cc1 (stereo not drawn) [FRPPO-011]
[1]
  pIC50: 7.00 to 7.60
[2]
  inhibition at 0.25 µM: > 40%
[3]
  pIC50: 5.30 to 7.00
[4]
  pIC50: ≤ 4.30

## Cc1c2c(nn1C)C(=O)N(c1ccc3[nH]cnc3c1)C2c1cccc(F)c1F (stereo not drawn) [FRPPO-012]
[1]
  pIC50: > 7.60
[2]
  inhibition at 0.25 µM: > 40%
[3]
  pIC50: 7.00 to 7.60
[4]
  pIC50: > 6.00

## Cc1c2c(nn1C)C(=O)N(c1ccc3[nH]cnc3c1)C2c1cc(F)cc(F)c1F (stereo not drawn) [FRPPO-013]
[1]
  pIC50: 7.00 to 7.60
[2]
  inhibition at 0.25 µM: > 40%
[3]
  pIC50: 7.00 to 7.60
[4]
  pIC50: 5.30 to 6.00

## Cc1c2c(nn1C)C(=O)N(c1ccc3[nH]cnc3c1)C2c1ccc(-c2ccccn2)cc1 (stereo not drawn) [FRPPO-014]
[1]
  pIC50: > 7.60
[2]
  inhibition at 0.25 µM: > 40%
[3]
  pIC50: 7.00 to 7.60
[4]
  pIC50: 5.30 to 6.00

## Cc1c2c(nn1C)C(=O)N(c1ccc3[nH]cnc3c1)C2c1ccc(N2CCCC2=O)cc1 (stereo not drawn) [FRPPO-016]
[1]
  pIC50: > 7.60
[2]
  inhibition at 0.25 µM: > 40%
[3]
  pIC50: 7.00 to 7.60
[4]
  pIC50: 4.30 to 5.30

## Cc1c2c(nn1C)C(=O)N(c1ccc3[nH]cnc3c1)C2c1ccc(N2CCCCC2=O)cc1 (stereo not drawn) [FRPPO-017]
[1]
  pIC50: 7.00 to 7.60
[2]
  inhibition at 0.25 µM: > 40%
[3]
  pIC50: 7.00 to 7.60
[4]
  pIC50: ≤ 4.30

## COc1ccc(C2c3c(nn(C)c3C)C(=O)N2c2ccc3[nH]cnc3c2)cc1O (stereo not drawn) [FRPPO-018]
[1]
  pIC50: > 7.60
[2]
  inhibition at 0.25 µM: > 40%
[3]
  pIC50: > 7.60
[4]
  pIC50: 4.30 to 5.30

## Cc1c2c(nn1C)C(=O)N(c1ccc3[nH]cnc3c1)C2c1ccc(OCC(C)(F)F)c(F)c1F (stereo not drawn) [FRPPO-019]
[1]
  pIC50: 7.00 to 7.60
[2]
  inhibition at 0.25 µM: > 40%
[3]
  pIC50: > 7.60
[4]
  pIC50: > 6.00

## Cc1c2c(nn1C)C(=O)N(c1ccc3[nH]cnc3c1)C2c1ccc2nsnc2c1 (stereo not drawn) [FRPPO-020]
[1]
  pIC50: > 7.60
[2]
  inhibition at 0.25 µM: > 40%
[3]
  pIC50: 7.00 to 7.60
[4]
  pIC50: 5.30 to 6.00

## Cc1c2c(nn1C)C(=O)N(c1ccc3[nH]cnc3c1)C2c1ccc(Oc2cnn(C)c2)cc1 (stereo not drawn) [FRPPO-025]
[1]
  pIC50: > 7.60
[2]
  inhibition at 0.25 µM: > 40%
[3]
  pIC50: 7.00 to 7.60
[4]
  pIC50: 4.30 to 5.30

## Cc1c2c(nn1C)C(=O)N(c1ccc3[nH]cnc3c1)C2c1ccc(N2CCS(=O)(=O)CC2)cc1 (stereo not drawn) [FRPPO-027]
[1]
  pIC50: > 7.60
[2]
  inhibition at 0.25 µM: > 40%
[3]
  pIC50: > 7.60
[4]
  pIC50: 5.30 to 6.00

## Cc1c2c(nn1C)C(=O)N(c1ccc3[nH]cnc3c1)C2c1ccc(N2CCC(F)(F)C2)cc1F (stereo not drawn) [FRPPO-028A]
[1]
  pIC50: > 7.60
[2]
  inhibition at 0.25 µM: > 40%
[3]
  pIC50: 7.00 to 7.60
[4]
  pIC50: > 6.00

## CCCOc1ccc(C2c3c(nn(CC)c3C)C(=O)N2c2ccc3[nH]cnc3c2)cc1 (stereo not drawn) [FRPPO-029]
[1]
  pIC50: 7.00 to 7.60
[2]
  inhibition at 0.25 µM: > 40%
[3]
  pIC50: 5.30 to 7.00
[4]
  pIC50: > 6.00

## CCCOc1ccc(C2c3c(nn(C(C)C)c3C)C(=O)N2c2ccc3[nH]cnc3c2)cc1 (stereo not drawn) [FRPPO-030]
[1]
  pIC50: 5.30 to 7.00
[2]
  inhibition at 0.25 µM: > 40%
[3]
  pIC50: 5.30 to 7.00
[4]
  pIC50: 5.30 to 6.00

## CCCOc1ccc(C2c3c(nn(COC)c3C)C(=O)N2c2ccc3[nH]cnc3c2)cc1 (stereo not drawn) [FRPPO-031]
[1]
  pIC50: 7.00 to 7.60
[2]
  inhibition at 0.25 µM: > 40%
[3]
  pIC50: 5.30 to 7.00
[4]
  pIC50: 5.30 to 6.00

## CCCOc1ccc(C2c3c(nn(CC(F)F)c3C)C(=O)N2c2ccc3[nH]cnc3c2)cc1 (stereo not drawn) [FRPPO-032]
[1]
  pIC50: 5.30 to 7.00
[2]
  inhibition at 0.25 µM: ≤ 40%
[3]
  pIC50: 5.30 to 7.00
[4]
  pIC50: 5.30 to 6.00

## CCCOc1ccc(C2c3c(nn(C4CCC4)c3C)C(=O)N2c2ccc3[nH]cnc3c2)cc1 (stereo not drawn) [FRPPO-033]
[1]
  pIC50: 5.30 to 7.00
[2]
  inhibition at 0.25 µM: > 40%
[3]
  pIC50: 5.30 to 7.00
[4]
  pIC50: 5.30 to 6.00

## CCCOc1ccc(C2c3c(nn(CC4CC4)c3C)C(=O)N2c2ccc3[nH]cnc3c2)cc1 (stereo not drawn) [FRPPO-034]
[1]
  pIC50: 5.30 to 7.00
[2]
  inhibition at 0.25 µM: > 40%
[3]
  pIC50: 5.30 to 7.00
[4]
  pIC50: 5.30 to 6.00

## CCCOc1ccc(C2c3c(nn(C4CCOCC4)c3C)C(=O)N2c2ccc3[nH]cnc3c2)cc1 (stereo not drawn) [FRPPO-035]
[1]
  pIC50: 5.30 to 7.00
[2]
  inhibition at 0.25 µM: > 40%
[3]
  pIC50: 5.30 to 7.00
[4]
  pIC50: 5.30 to 6.00
